Source: US10160772B2, “5,6-dihydro-4H-benzo[b]thieno-[2,3-d]azepine derivatives” (PULMOCIDE LIMITED, priority 2014, dated 2018)
Like-named read-outs stand apart in the source and are kept apart here.

Key:
Format in all cases: cell-based
[1] = Cell viability: resazurin assay in Hep2 cells; conditions: human, 5 days incubation
Protocol: Cell Viability: Resazurin Assay Hep2 cells were seeded in 384-well plates (10^3/well/50 μL; BD Falcon Ref 353962) in FBS DMEM (5%, containing 2 mM L-glutamine and 1 mM sodium pyruvate) one day before experimentation. Serum-free DMEM (50 μL) was added to test wells while for control wells the media was removed and sterile water (100 μL) was added. Test compounds (0.5 μL DMSO solution) were added to give a final DMSO concentration of 0.5%. Hep2 cells were incubated with each test compound for 5 days (37° C./5% CO2 in 5% FBS) and then resazurin stock solution (5 μL; 0.03%) was added to each well and the plate incubated further for a further 6 hrs (37° C./5% CO2). The fluorescence of each well at 545 nm (excitation) and 590 nm (emission) was determined using a multi-scanner (Clariostar: BMG Labtech). The percentage loss of cell viability was calculated for each well relative to vehicle (0.5% DMSO) treatment. Where appropriate, a CC50 value was calculated from the concentration-response curve generated from the concentration-response curve for each test compound.

RSV B Washington strain = test: RSV B-induced CPE in Hep2 cells; conditions: human respiratory syncytial virus; for IC50: HEp-2, 144 h, read-out: RSV B CPE IC50
Protocol: (§1) Biological Testing: Experimental Methods Assessment of RSV Induced CPE in Hep2 Cells
(§2) Hep2 cells were seeded (10^3/well/50 μL) in 384-well plates (Catalogue number 353962, BD Falcon, Oxford, UK) in 5% serum free-DMEM containing 2 mM L-glutamine and 1 mM sodium pyruvate one day before infection. RSV A2 strain (#0709161v, NCPV, Public Health England, Wiltshire) or RSV B Washington strain (VR-1580, ATCC, Manassas, Va. 20108) virus solutions were prepared in serum free-DMEM with 2 mM L-glutamine and 1 mM sodium pyruvate, and then added (50 μL/well) to achieve a final virus concentration of 1 MOI for RSV A and 0.1MOI for RSV B. Simultaneously test compounds (0.5 μL DMSO solution) were added to 100 μL of Hep2 cell culture with virus solution to provide a final DMSO solution of 0.5%. Plates were incubated (37° C./5% CO2) for 5 days for studies using RSV A2 strain or 6 days for those using RSV B strain, and then resazurin sodium salt (5 μL of 0.03% solution; Sigma-Aldrich, Dorset, UK) was added to each well and the plate incubated for a further 6 hr (37° C. and 5% CO2). The fluorescence of each well [545 nm (excitation)/590 nm (emission)] was determined using a multi-scanner (Clariostar: BMG, Buckinghamshire, UK). The percentage inhibition for each well was calculated and the IC50, IC75 and IC90 values were calculated from the concentration-response curve generated for each test compound.

[2] = tested on: RSV A2 F-protein expression; test: RSV A2 F-protein expression in BEAS2B bronchial epithelial cells; conditions: human respiratory syncytial virus, BEAS-2B, 72 h, read-out: RSV A2 F-protein IC50
Protocol: Assessment of RSV F Protein Expression in BEAS2B Bronchial Epithelial Cells
An early event which follows the infection of epithelial cells by RSV is the expression of RSV F-protein on the cells' surface. BEAS2B cells (SV40-immortalised human bronchial epithelial cell line) were grown in 96 well plates. Once more than 70% confluent, cells were infected with RSV A2 (#0709161v, NCPV, Public Health England, Wiltshire) at an MOI of 0.01 in clear RPMI-1640 medium (Life technologies, Paisley, UK) with 2% FBS (Life technologies, Paisley, UK), and incubated for 3 days (37° C./5% CO2).
Supernatant was aspirated and the cells were fixed with 4% formaldehyde (100 μL in PBS solution) for 20 min, washed 3 times with washing buffer (200 μL; PBS containing 0.05% Tween-20) and incubated with blocking solution (100 μL; 5% Marvel milk in PBS) for 1 hr. Cells were then washed with washing buffer (200 μL) and incubated for 1 hr at 37° C. with anti-RSV (2F7; mouse monoclonal, lot 160290, Cat. No. ab43812, Abcam plc, Cambridge, UK) F-fusion protein antibody (50 μL; prepared at a 1:1000 dilution in 5% milk/PBS-tween). After washing, cells were incubated with an HRP-conjugated anti-mouse IgG antibody (50 μL prepared at a 1:2000 dilution in 5% milk in PBS; lot 00095437, Cat. No. P0447, Dako UK Ltd, Cambridgeshire, UK) for 1 hr. Cells were washed twice with washing buffer and once with PBS. TMB substrate (100 μL; substrate reagent pack lot 320436, Cat. No. DY999, R&D Systems, Inc. Abingdon, UK) was then added and the reaction was stopped by the addition of aq sulfuric acid (50 μL; 2N). The resultant signal was determined colourimetrically (OD: 450 nm with a reference wavelength of 655 nm) in a microplate reader (Multiskan FC®, ThermoFisher Scientific). Cells were then washed and 1% crystal violet solution (50 μL; lot SLB4576, Cat. No. HT90132-1L, Sigma-Aldrich) was applied for 30 min. After washing with PBS (200 μL) 3 times, 1% SDS (100 μL) was added to each well, and plates were shaken lightly for 1 hr prior to reading the absorbance at 595 nm. The measured OD450-655 readings were corrected for cell number by dividing the OD450-655 by the OD595 readings. The percentage inhibition for each well was calculated and the IC50 value derived from the concentration-response curve generated for each test compound.

RSV A2 strain = test: RSV A2-induced CPE in Hep2 cells; conditions: human respiratory syncytial virus; for IC50: HEp-2, 120 h, read-out: RSV A2 CPE IC50; for inhibition at 0.1 µg/mL: at 0.1 μg/mL
Protocol: as §1, §2

[3] = Hep2 cells, RSV B Washington 0.1 MOI, 6 days, resazurin
[4] = HEp-2, Hep2 cells, at 1 μg/mL, read-out: RSV B CPE % Inhibition
[5] = Hep2 cells, RSV A2 1 MOI, 5 days, resazurin
[6] = HEp-2, Hep2 cells, at 0.01 μg/mL (footnote 2), read-out: RSV A2 CPE % Inhibition
[7] = HEp-2, Hep2 cells, read-out: RSV A2 CPE % Inhibition

| SMILES | IC50 (RSV B Washington strain; [3]) | IC50 (RSV A2 strain; [5]) | CC50 at 5 days [1] | inhibition at 1 µg/mL (RSV B Washington strain; [4]) | IC50 [2] | inhibition at 0.01 µg/mL (RSV A2 strain; [6]) | IC50 (RSV B Washington strain) | inhibition at 1 µg/mL (RSV B Washington strain; HEp-2, read-out: RSV B CPE % Inhibition) | IC50 (RSV A2 strain) | inhibition at 0.01 µg/mL (RSV A2 strain; HEp-2, read-out: RSV A2 CPE % Inhibition) | inhibition at 0.1 µg/mL (RSV A2 strain; [7]) |
| --- | --- | --- | --- | --- | --- | --- | --- | --- | --- | --- | --- |
| Cc1ccc(C(=O)Nc2ccc(C(=O)N3CCc4cc(-c5nc6ccccc6[nH]5)sc4-c4ccccc43)cc2)c(N2CC3(CCOCC3)C2)n1 [Example 2, N-(4-(2-(1H-Benzo[d]imidazol-2-yl)-5,6-dihydro-4H-benzo[b]thieno[2,3-d]azepine-6-carbonyl)phenyl)-6-methyl-2-(7-oxa-2-azaspiro[3,5]nonan-2-yl)nicotinamide] | 9.6 nM | 0.23 nM | > 14.7 µM | 100% | 1.6 nM | 90% |  |  |  |  |  |
| CCc1cccc2nc(-c3cc4c(s3)-c3ccccc3N(C(=O)c3ccc(NC(=O)c5cc(C)cnc5N5CC6(CCOCC6)C5)cc3)CC4)[nH]c12 [Example 3, N-(4-(2-(7-Ethyl-1H-benzo[d]imidazol-2-yl)-5,6-dihydro-4H-benzo[b]thieno[2,3-d]azepine-6-carbonyl)phenyl)-5-methyl-2-(7-oxa-2-azaspiro[3.5]nonan-2-yl)nicotinamide] |  |  | > 14.1 µM |  | 0.78 nM |  | 8.6 nM | 100% | 2.6 nM | 100% |  |
| C#Cc1cnc(N2CC3(CCOCC3)C2)c(C(=O)Nc2ccc(C(=O)N3CCc4cc(-c5nc6ccccc6[nH]5)sc4-c4ccccc43)cc2)c1 [Example 5, N-(4-(2-(1H-Benzo[d]imidazol-2-yl)-5,6-dihydro-4H-benzo[b]thieno[2,3-d]azepine-6-carbonyl)phenyl)-5-ethynyl-2-(7-oxa-2-azaspiro[3,5]nonan-2-yl)nicotinamide] | 36.1 nM | 6.9 nM | > 14.5 µM | 92% | 0.11 nM | 100% |  |  |  |  |  |
| O=C(Nc1ccc(C(=O)N2CCc3cc(-c4nc5ccccc5[nH]4)sc3-c3ccccc32)cc1)c1cc(C2CC2)cnc1N1CC2(CCOCC2)C1 [Example 6, N-(4-(2-(1H-Benzo[d]imidazol-2-yl)-5,6-dihydro-4H-benzo[b]thieno[2,3-d]azepine-6-carbonyl)phenyl)-5-cyclopropyl-2-(7-oxa-2-azaspiro[3,5]nonan-2-yl)nicotinamide] | 14.9 nM | 2.6 nM | > 14.1 µM | 100% | 0.22 nM | 100% |  |  |  |  |  |
| O=C(Nc1ccc(C(=O)N2CCc3cc(-c4nc5ccccc5[nH]4)sc3-c3ccccc32)cc1)c1cccnc1N1CC2(CCOCC2)C1 [Example 7] | 28.7 nM | 0.12 nM | > 15 µM | 100% | 0.94 nM |  |  |  |  |  | 100% |

Now from value to compound, other results behind:

| IC50 (RSV B Washington strain; [3]) | IC50 (RSV A2 strain; [5]) | SMILES | CC50 at 5 days [1] | inhibition at 1 µg/mL (RSV B Washington strain; [4]) | IC50 [2] | inhibition at 0.01 µg/mL (RSV A2 strain; [6]) | IC50 (RSV B Washington strain) | inhibition at 1 µg/mL (RSV B Washington strain; HEp-2, read-out: RSV B CPE % Inhibition) | IC50 (RSV A2 strain) | inhibition at 0.01 µg/mL (RSV A2 strain; HEp-2, read-out: RSV A2 CPE % Inhibition) | inhibition at 0.1 µg/mL (RSV A2 strain; [7]) |
| --- | --- | --- | --- | --- | --- | --- | --- | --- | --- | --- | --- |
| 14 nM | 1.6 nM | Cc1cc(C(=O)Nc2ccc(C(=O)N3CCc4cc(-c5nc6cccc(F)c6[nH]5)sc4-c4ccccc43)cc2)c(N2CC3(CCOCC3)C2)nc1C [Example 22, N-(4-(2-(7-fluoro-1H-benzo[d]imidazol-2-yl)-5,6-dihydro-4H-benzo[b]thieno[2,3-d]azepine-6-carbonyl)phenyl)-5,6-dimethyl-2-(7-oxa-2-azaspiro[3.5]nonan-2-yl)nicotinamide] | > 14 µM | 100% |  | 90% |  |  |  |  |  |
| 103 nM | 0.75 nM | Cc1cc(C(=O)Nc2ccc(C(=O)N3CCc4cc(-c5nc6cccc(Cl)c6[nH]5)sc4-c4ccccc43)cc2)c(N2CC3(CCOCC3)C2)nc1C [Example 23, N-(4-(2-(7-chloro-1H-benzo[d]imidazol-2-yl)-5,6-dihydro-4H-benzo[b]thieno[2,3-d]azepine-6-carbonyl)phenyl)-5,6-dimethyl-2-(7-oxa-2-azaspiro[3.5]nonan-2-yl)nicotinamide] | > 13.7 µM | 100% |  |  |  |  |  |  | 100% |
| 27.3 nM | 0.85 nM | Cc1cc(C(=O)Nc2ccc(C(=O)N3CCc4cc(-c5nc6cccc(C)c6[nH]5)sc4-c4ccccc43)cc2)c(N2CC3(CCOCC3)C2)nc1C [Example 24] | > 14.1 µM | 100% |  |  |  |  |  |  | 100% |
| 15.8 nM | 0.69 nM | Cc1cc(C(=O)Nc2ccc(C(=O)N3CCc4cc(-c5nc6cccc(C#N)c6[nH]5)sc4-c4ccccc43)cc2)c(N2CC3(CCOCC3)C2)nc1C [Example 25, N-(4-(2-(7-cyano-1H-benzo[d]imidazol-2-yl)-5,6-dihydro-4H-benzo[b]thieno[2,3-d]azepine-6-carbonyl)phenyl)-5,6-dimethyl-2-(7-oxa-2-azaspiro[3.5]nonan-2-yl)nicotinamide] | > 13.9 µM | 100% |  | 100% |  |  |  |  |  |
| 12 nM | 0.27 nM | Cc1cnc(N2CC3(CCOCC3)C2)c(C(=O)Nc2ccc(C(=O)N3CCc4cc(-c5nc6ccccc6[nH]5)sc4-c4ccccc43)c(F)c2)c1 [Example 26, N-(4-(2-(1H-benzo[d]imidazol-2-yl)-5,6-dihydro-4H-benzo[b]thieno[2,3-d]azepine-6-carbonyl)-3-fluorophenyl)-5-methyl-2-(7-oxa-2-azaspiro[3.5]nonan-2-yl)nicotinamide] | > 14.3 µM | 100% |  | 100% |  |  |  |  |  |
| 15 nM | 0.29 nM | Cc1cnc(N2CC3(CCOCC3)C2)c(C(=O)Nc2ccc(C(=O)N3CCc4cc(-c5nc6cccc(C)c6[nH]5)sc4-c4ccccc43)c(F)c2)c1 [Example 27, N-(3-fluoro-4-(2-(7-methyl-1H-benzo[d]imidazol-2-yl)-5,6-dihydro-4H-benzo[b]thieno[2,3-d]azepine-6-carbonyl)phenyl)-5-methyl-2-(7-oxa-2-azaspiro[3.5]nonan-2-yl)nicotinamide] | > 14 µM | 80% |  |  |  |  |  |  | 90% |
